Experimental data as given in BigSolDB 2.1.

Settings: in n-hexane

| solubility (mole fraction) (293.15 K) | solubility (mole fraction) (298.15 K) | solubility (mole fraction) (303.15 K) | solubility (mole fraction) (310.15 K) | solubility (mole fraction) (315.15 K) | Compound |
| --- | --- | --- | --- | --- | --- |
| 1.56e-05 | 1.93e-05 | 2.42e-05 | 3.23e-05 | 3.95e-05 | CC(=O)c1ccc(NC2=NCCC3(CCCCC3)S2)cc1 |
| 0.000214 | 0.000272 | 0.000345 | 0.000424 | 0.00057 | FC(F)(F)c1ccc(NC2=NCCC3(CCCCC3)S2)cc1 |
| 0.000124 | 0.000153 | 0.000189 | 0.00025 | 0.000295 | O=C(NC1=NCCC2(CCCCC2)S1)c1ccccc1 |
| 0.00028 | 0.000326 | 0.000379 | 0.000445 | 0.00052 | Cc1ccc(NC2=NCCC3(CCCCC3)S2)cc1 |
| 0.000149 | 0.000182 | 0.000221 | 0.000295 | 0.000357 | COc1ccc(NC2=NCCC3(CCCCC3)S2)cc1 |
| 0.000365 | 0.000431 | 0.000508 | 0.000617 | 0.000885 | CCc1ccc(NC2=NCCC3(CCCCC3)S2)cc1 |
| 0.000514 | 0.00061 | 0.000742 | 0.000919 | 0.0011 | CC(C)c1ccc(NC2=NCCC3(CCCCC3)S2)cc1 |
| 8.6e-06 | 1.15e-05 | 1.48e-05 | 2.15e-05 | 2.68e-05 | Cc1ccc(NC2=NCCC3(CCCCC3)S2)cc1Cl |
| 2.46e-05 | 3.31e-05 | 4.34e-05 | 6.54e-05 | 8.27e-05 | Brc1ccc(NC2=NCCC3(CCCCC3)S2)cc1 |
| 0.00115 | 0.0013 | 0.00148 | 0.0019 | 0.00215 | c1ccc(NC2=NCCC3(CCCCC3)S2)cc1 |
| 6.09e-05 | 7.93e-05 | 0.000101 | 0.000136 | 0.00017 | Clc1ccc(NC2=NCCC3(CCCCC3)S2)cc1 |
